Activity calls are given as the source filed them. The rule behind the calls is not given here.
What was measured:
Human alphaherpesvirus 3 [1] = assay: Antiviral activity against thymidine kinase positive VZV OKa infected in HEL cells by plaque formation assay; format: functional, cell-based, Human herpesvirus 3 strain Oka vaccine; conditions: Human alphaherpesvirus 3, OKa
Human alphaherpesvirus 1 [2] = assay: Antiviral activity against HSV1 KOS infected in HEL cells by viral CPE assay; format: functional, organism-based; conditions: Human alphaherpesvirus 1, KOS
[3] = Selectivity index, ratio of cytotoxic CC50 for HEL cells to EC50 for VZV Oka
Vaccinia virus = assay: Antiviral activity against Vaccinia virus Lederie infected in HEL cells by viral CPE assay; format: functional, organism-based; conditions: Orthopoxvirus vaccinia
[4] = Selectivity index, ratio of cytotoxic CC50 for HEL cells to EC50 for HSV2 G
HEL = assay: Cytotoxicity against HEL cells assessed as effect on cell growth incubated for 3 days by Coulter counter assay; format: cell-based; conditions: human, 72 h
[5] = Selectivity index, ratio of cytotoxic CC50 for HEL cells to EC50 for ACV resistant HSV1 KOS
Human alphaherpesvirus 2 = assay: Antiviral activity against HSV2 G infected in HEL cells by viral CPE assay; format: functional, organism-based; conditions: Human alphaherpesvirus 2, strain G
[6] = Cytotoxicity against HEL cells assessed as effect on cell morphology incubated for 3 days by microscopy; format: cell-based; conditions: human
Felid alphaherpesvirus 1 = assay: Antiviral activity against Feline herpesvirus infected in CRFK cells by viral CPE assay; format: functional, organism-based; conditions: Felid alphaherpesvirus 1, CRFK
[7] = Selectivity index, ratio of cytotoxic CC50 for HEL cells to EC50 for Vaccinia virus Lederie; format: toxicity, cell-based; conditions: human, read-out: Ratio CC50/EC50
[8] = Selectivity index, ratio of cytotoxic CC50 for HEL cells to EC50 for HCMV AD169
[9] = Selectivity index, ratio of cytotoxic CC50 for HEL cells to EC50 for Feline herpesvirus; format: toxicity, cell-based; conditions: human, read-out: Ratio CC50/EC50
Human alphaherpesvirus 3 [10] = assay: Antiviral activity against thymidine kinase negative VZV 07/01 infected in HEL cells by plaque formation assay; format: functional, organism-based; conditions: Human alphaherpesvirus 3, 07/01, HEL
Human betaherpesvirus 5 [11] = assay: Antiviral activity against HCMV AD169 infected in HEL cells by viral CPE assay; format: functional, organism-based; conditions: Human betaherpesvirus 5, AD169, HEL
[12] = Selectivity index, ratio of cytotoxic CC50 for HEL cells to EC50 for HCMV Davis
[13] = Selectivity index, ratio of cytotoxic CC50 for HEL cells to EC50 for VZV 07/01
Human betaherpesvirus 5 [14] = assay: Antiviral activity against HCMV Davis infected in HEL cells by viral CPE assay; format: functional, organism-based; conditions: Human betaherpesvirus 5, Davis
Human alphaherpesvirus 1 [15] = assay: Antiviral activity against thymidine kinase negative and ACV resistant HSV1 KOS infected in HEL cells by viral CPE assay; format: functional, organism-based; conditions: Human alphaherpesvirus 1, KOS
[16] = Selectivity index, ratio of cytotoxic CC50 for HEL cells to EC50 for HSV1 KOS
Human respirovirus 3 = assay: Antiviral activity against Human parainfluenza virus 3 by viral CPE assay; format: functional, organism-based
[17] = system: Human immunodeficiency virus 2; assay: Antiviral activity against HIV2 ROD infected in human CEM cells assessed as reduction in virus-induced CEM giant cell formation incubated for 4 days at 37 degC by microscopy; format: functional, organism-based; conditions: ISOLATE ROD, CCRF-CEM
Coxsackievirus B4 = assay: Antiviral activity against Human coxsackievirus B4 by viral CPE assay; format: functional, organism-based
[18] = Selectivity index, ratio of cytotoxic CC50 for HEL cells to EC50 for VZV YS/R
[19] = system: Human immunodeficiency virus 1; assay: Antiviral activity against HIV1 3B infected in human CEM cells assessed as reduction in virus-induced CEM giant cell formation incubated for 4 days at 37 degC by microscopy; format: functional, organism-based; conditions: CCRF-CEM
Sindbis virus = assay: Antiviral activity against Sindbis virus by viral CPE assay; format: functional, organism-based
Human alphaherpesvirus 3 [20] = assay: Antiviral activity against thymidine kinase positive VZV YS infected in HEL cells by plaque formation assay; format: functional, organism-based; conditions: Human alphaherpesvirus 3, YS
[21] = Selectivity index, ratio of cytotoxic CC50 for HEL cells to EC50 for VZV YS
[22] = system: Respiratory syncytial virus; assay: Antiviral activity against Respiratory syncytial virus Long by viral CPE assay; format: functional, organism-based
Human alphaherpesvirus 3 [23] = assay: Antiviral activity against thymidine kinase negative VZV YS/R infected in HEL cells by plaque formation assay; format: functional, organism-based; conditions: Human alphaherpesvirus 3, YS/R
[24] = system: Mammalian orthoreovirus 1; assay: Antiviral activity against Reovirus 1 by viral CPE assay; format: functional, organism-based
[25] = system: Vesicular stomatitis virus; assay: Antiviral activity against VSV by viral CPE assay; format: functional, organism-based
Punta Toro virus = assay: Antiviral activity against Punta Toro virus by viral CPE assay; format: functional, organism-based

Structure (SMILES)	EC50 (Human alphaherpesvirus 3 [1])	EC50 (Human alphaherpesvirus 1 [2])	Ratio CC50/EC50 [3]	EC50 (Vaccinia virus)	Ratio CC50/EC50 [4]	CC50 (HEL)	Ratio CC50/EC50 [5]	EC50 (Human alphaherpesvirus 2)	MCC at 72 h [6]	EC50 (Felid alphaherpesvirus 1)	selectivity ratio [7]	Ratio CC50/EC50 [8]	selectivity ratio [9]	EC50 (Human alphaherpesvirus 3 [10])	EC50 (Human betaherpesvirus 5 [11])	Ratio CC50/EC50 [12]	Ratio CC50/EC50 [13]	EC50 (Human betaherpesvirus 5 [14])	EC50 (Human alphaherpesvirus 1 [15])	Ratio CC50/EC50 [16]	further results
Nc1nc2c(ncn2C[C@@H](CO)OCP(=O)(O)O)c(=O)[nH]1	560 nM	780 nM	70	1100 nM	50	39000 nM	50	780 nM	> 100 µM	720 nM	35	22	157	210 nM	1800 nM	26	186	1500 nM	780 nM	50	
CCCCCCCCCCCCCCCCOCCCOP(=O)(CO[C@H](CO)Cn1cnc2c(=O)[nH]c(N)nc21)OCCCOCCCCCCCCCCCCCCCC	3900 nM	11900 nM	>29	44700 nM	>5	> 113000 nM	>4	23200 nM	≥ 22.6 µM	> 113000 nM	> 2.5	>9		1400 nM	11900 nM	>11	>81	10100 nM	30500 nM	>9	Activity (Human respirovirus 3): inactive; Activity [17]: inactive; Activity (Coxsackievirus B4): inactive; Ratio CC50/EC50 [18]: >57; Activity [19]: inactive; Activity (Sindbis virus): inactive; EC50 (Human alphaherpesvirus 3 [20]): 1200 nM; Ratio CC50/EC50 [21]: >94; Activity [22]: inactive; EC50 (Human alphaherpesvirus 3 [23]): 2000 nM; Activity [24]: inactive; Activity [25]: inactive; Activity (Punta Toro virus): inactive
CCCCCCCCCCCCCCCCOCCCOP1(=O)CO[C@@H](Cn2cnc3c(=O)[nH]c(N)nc32)CO1 (mixture of isomers)	7 nM	34 nM	2700	130 nM	238	19000 nM	211	80 nM	≥ 171 µM	430 nM	146	3800	398	5 nM	5 nM	9500	3800	2 nM	90 nM	559	Activity (Human respirovirus 3): inactive; Activity [17]: inactive; Activity (Coxsackievirus B4): inactive; Ratio CC50/EC50 [18]: 3800; Activity [19]: inactive; Activity (Sindbis virus): inactive; EC50 (Human alphaherpesvirus 3 [20]): 1 nM; Ratio CC50/EC50 [21]: 19000; Activity [22]: inactive; EC50 (Human alphaherpesvirus 3 [23]): 5 nM; Activity [24]: inactive; Activity [25]: inactive; Activity (Punta Toro virus): inactive
